Results as given in patent publication US12384743B2, “Compositions comprising (R)-2-amino-3-phenylpropyl carbamate and uses thereof” (priority 2016, dated 2025).
Counter-ions that a name gives are not always drawn. Like-named read-outs stand apart in the source and are kept apart here.

Experiments:
[1] = Humidity stressing of Form A; type: physicochemical; conditions: approximately 75% humidity (RH)
[2] = type: physicochemical; conditions: for relative humidity at which conversion to Form B occurred: slurrying Form A only
Protocol: Slurry experiments were performed with various water activities starting with Form A only and also by conducting interconversion slurries or pre-saturating solutions with APC and then adding equal amounts of Form A and Form B. When slurrying Form A only, conversion to Form B at room temperature occurred at 67% RH, and 40% RH at 2-8° C. With the interconversion slurries, Form B was isolated from all experiments with relative humidities ranging from 50% to 70%.

[3] = Drying of Form B in scaled-up method (low vacuum); type: physicochemical; conditions: oven temperature 20-25° C., low vacuum (700-750 mbar)
Protocol: An additional scaled-up method for producing Form B was developed that reduced reaction time and volume and increased yield. Isolation of Form B from Form A was carried out in 5 volumes of solvent (acetonitrile:water (95%:5% v:v)) at about 20° C. for about 1-2 hours. The drying process was carried out at an oven temperature of 20-25° C. and low vacuum (700-750 mbar). Under these drying conditions Form B was stable and no detectable Form A was formed. This method was used on a 4.5 kg batch of APC and produced Form B with a yield of 93.7%.

[4] = Drying studies on Form B (temperature, vacuum, milling, desiccant, low RH stressing); type: physicochemical
Protocol: Drying studies were performed on Form B. The drying experiments were performed under various temperatures with and without vacuum. Additionally, milling, storage under desiccant, and low RH stressing were conducted.

[5] = Aqueous solubility of Form B in different pH buffers; type: physicochemical; conditions: thermodynamic from solid

Row | Compound | solid form after humidity stressing [1] | relative humidity at which conversion to Form B occurred ([2]; 2-8° C.) [% RH] | relative humidity at which conversion to Form B occurred ([2]; room temperature) [% RH] | stability of solid form on drying [3] | stability of solid form (overall result of the drying studies) ([4]; low RH or elevated temperature) | solid form after drying/stress ([4]; vacuum drying at 50° C. 1 day, heating at 80° C. 1 day, milling) | solid form after drying/stress ([4]; vacuum drying at ambient temperature 1 day, heating at 40° C. 1 day, storage under desiccant 1 day, stressing at 33% RH 2 weeks) | relative stability of solid forms ([2]; interconversion slurry of Form A and Form B, approximately 50% RH or greater at room temperature) | solubility ([5]; aqueous buffer, Buffer solution pH 4.5, pH (buffer) measured starting conditions 4.5, pH (buffered sample) 5.7, read-out: Solubility (mg/ml mean of triplicates)) [mg/mL] | solubility ([5]; aqueous buffer, Buffer solution pH 5.5, pH (buffer) measured starting conditions 5.5, pH (buffered sample) 6.0, read-out: Solubility (mg/ml mean of triplicates)) [mg/mL] | solubility ([5]; aqueous buffer, Buffer solution pH 7.4, pH (buffer) measured starting conditions 7.4, pH (buffered sample) 6.4, read-out: Solubility (mg/ml mean of triplicates)) [mg/mL] | solubility ([5]; aqueous buffers of different pH, aqueous buffer, different pH buffers, read-out: aqueous solubility) [mg/mL] | solubility ([5]; buffer solution, aqueous buffer, pH 1-6.5, read-out: solubility in buffer solution) [mg/mL] | solubility ([5]; simulated gastric fluid, Buffer solution pH 1.2, pH (buffer) measured starting conditions 1.2, pH (buffered sample) 4.5, read-out: Solubility (mg/ml mean of triplicates)) [mg/mL]
1 | NC(=O)OC[C@H](N)Cc1ccccc1 [Form A, (R)-2-amino-3-phenylpropyl carbamate hydrochloride] | Partial conversion to Form B | 40 | 67 |  |  |  |  |  |  |  |  |  |  | 
2 | NC(=O)OC[C@H](N)Cc1ccccc1 [Form B, (R)-2-amino-3-phenylpropyl carbamate hydrochloride] |  |  |  | stable | not stable | Full dehydration to Form A | Partial conversion to Form A | more stable form | 733 | 742 | 746 | > 700 | 700 to 750 | 732
